Like-named read-outs stand apart in the source and are kept apart here.
Experiments:
[1] = UV-VIS absorption and fluorescence emission spectra; type: physicochemical; conditions: 0.1M phosphate buffer (1x PBS for 7d5); ± 1 nm error
Protocol: All labeled samples were dissolved in water and diluted with 0.1 M phosphate buffer or 1×PBS (for 7d5). Assuming that the labeled bisphosphonates have the same extinction coefficient (E) as the carboxylic acid of the free fluorescent label, the final concentrations for all labeled products were calculated from UV-VIS absorption spectra at λ=493 nm (ε=73000 M^−1 cm^−1 at pH 7.2) for FAM conjugates (7a1-7a3, 7b1, 7c1, 7d1-7d2, 7e1-7e2, 7f1-7f2), λ=567.5 nm (ε=114850 M^−1cm^−1 at pH 7.5) for RhR-X conjugates (7a4, 7b2, 7c2), λ=580 nm (c=72000 M^−1cm^−1 at pH 8.0) for ROX conjugates (7a5, 7b3), λ=648 nm (ε=240000 M^−1cm^−1 at pH 7.2) for AF647 conjugates (7a6, 7b4, 7d3), λ=774 nm (ε=240000 M^−1cm^−1 at pH 7.4) for 800CW conjugates (7d4), λ=644 nm (ε=271000 M^−1cm^−1 at pH 7.4, 1×PBS) for Sulfo-Cy5 conjugates (7d5).
Emission spectra for FAM and RhR-X conjugates were recorded using an excitation wavelength of 490 nm or 520 nm, respectively. Emission spectra for AF647 conjugates and Sulfo-Cy5 conjugates were recorded using an excitation wavelength of 600 nm. Emission spectra of 5(6)-ROX conjugates were recorded using an excitation wavelength of 575 nm. Emission spectra of IRDye CW800 conjugate was recorded using an excitation wavelength of 750 nm. The set-up of excitation slit, emission slit, integration time and increment were determined to get optimal spectra for each compound respectively, depending on the sample concentration and spectrometer used.

[2] = assumed the same as the corresponding fluorescent dye, cited from earlier work
[3] = system: unprenylated Rap1A (uRap1A); experiment: Prenylation assay: Western blot for unprenylated Rap1A in J774.2 macrophages; type: cell-based, mouse; conditions: 10 or 100 μM, 24 h, FIG. 5A-C
Protocol: To determine the effect of fluorescent BP probes on protein prenylation, J774.2 mouse macrophages were plated out at 2×10^5 cells/mL in 24-well plates and left to adhere overnight. Cells were then treated with 10 or 100 μM of fluorescent analogues of RIS, dRIS, and ZOL, the respective native BP, or vehicle, for 24 h. Cells were lysed in radioimmunoprecipitation buffer, and proteins were separated by sodium dodecyl sulfate polyacrylamide gel electrophoresis and transferred to polyvinyl difluoride membranes by western blotting. Membranes were then incubated with antibodies to the unprenylated form of Rap1A (uRap1A) and the housekeeping protein β-actin, which were detected by incubation with fluorescently-labeled secondary antibodies and scanning of membranes on a LI-COR Infrared Imager. Results shown are representative of 2 independent experiments. The ratio between abundance of unprenylated RaplA and β-actin is indicated for each sample below the blots in FIG. 5.

| Compound | Maximum absorption wavelength (λmax (abs), nm) [1] | Maximum emission wavelength (λmax (em), nm) [1] | Extinction coefficient ([2]; pH 8.0, 0.1M phosphate buffer) | accumulation of unprenylated Rap1A (anti-prenylation activity) [3] | Extinction coefficient ([2]; pH 7.2, 0.1M phosphate buffer) | Extinction coefficient ([2]; pH 7.5, 0.1M phosphate buffer) | Extinction coefficient ([2]; pH 7.0, 0.1M phosphate buffer) | Extinction coefficient ([2]; 1x PBS, pH 7.4) |
| --- | --- | --- | --- | --- | --- | --- | --- | --- |
| 16-[2-carboxy-4-({3-[4-(2-carboxy-2-hydroxy-2-phosphonoethyl)pyridin-1-ium-1-yl]-2-hydroxypropyl}carbamoyl)phenyl]-3-oxa-9λ^5,23-diazaheptacyclo[17.7.1.1^5,9.0^2,17.0^4,15.0^23,27.0^13,28]octacosa-1(27),2(17),4,9(28), 13,15,18-heptaen-9-ylium [5(6)-ROX-RISPC] | 579 nm | 606 nm | 72,000 (pH 8.0) M^−1cm^−1 | – | – | – | – | – |
| 1-(3-(4-carboxy-3-(6-hydroxy-3-oxo-3H-xanthen-9-yl)benzamido)-2-hydroxypropyl)-3-(2-hydroxy-2,2-diphosphonoethyl)pyridin-1-ium [Compound 6-FAM-RIS] | 493 nm | 517 nm | – | clearly detectable | 73,000 (pH 7.2) M^−1cm^−1 | – | – | – |
| 1-(3-(3-carboxy-4-(6-hydroxy-3-oxo-3H-xanthen-9-yl)benzamido)-2-hydroxypropyl)-3-(2-hydroxy-2,2-diphosphonoethyl)pyridin-1-ium [Compound 5-FAM-RIS] | 493 nm | 521 nm | – | clearly detectable | 73,000 (pH 7.2) M^−1cm^−1 | – | – | – |
| O=C(NCC(O)C[n+]1cc(CC(O)(C(=O)O)P(=O)(O)O)n2ccccc21)c1ccc(-c2c3ccc(=O)cc-3oc3cc(O)ccc23)c(C(=O)O)c1 (stereo not drawn) [Compound 5-FAM-MINPC, 3-(2-carboxy-2-hydroxy-2-phosphonoethyl)-1-(3-(3-carboxy-4-(6-hydroxy-3-oxo-3H-xanthen-9-yl)benzamido)-2-hydroxypropyl)imidazo[1,2-a]pyridin-1-ium] | 493 nm | 522 nm | – | – | 73,000 (pH 7.2) M^−1cm^−1 | – | – | – |
| 16-[2-carboxy-4-({2-hydroxy-3-[4-(2-hydroxy-2,2-diphosphonoethyl)pyridin-1-ium-1-yl]propyl}carbamoyl)phenyl]-3-oxa-9λ^5,23-diazaheptacyclo[17.7.1.1^5,9.0^2,17.0^4,15.0^23,27.0^13,28]octacosa-1(27),2(17),4,9(28), 13,15,18-heptaen-9-ylium [5(6)-ROX-RIS] | 580 nm | 606 nm | 72,000 (pH 8.0) M^−1cm^−1 | shows activity | – | – | – | – |
| CCN(CC)c1ccc2c(-c3ccc(S(=O)(=O)NCCCCCC(=O)NCC(O)C[n+]4cccc(CC(O)(P(=O)(O)O)P(=O)(O)O)c4)cc3S(=O)(=O)O)c3ccc(=[N+](CC)CC)cc-3oc2c1 (stereo not drawn) [5(6)-RhR-RIS, 1-{3-[6-({4-[6-(diethylamino)-3-(diethylimino)-3H-xanthen-9-yl]-3-sulfobenzene}sulfonamido)hexanamido]-2-hydroxypropyl}-3-(2-hydroxy-2,2-diphosphonoethyl)pyridinium] | 567.5 nm | 589 nm | – | – | – | 114,850 (pH 7.5) M^−1cm^−1 | – | – |
| O=C(NCC(O)C[n+]1cc(CC(O)(P(=O)(O)O)P(=O)(O)O)n2ccccc21)c1ccc(-c2c3ccc(=O)cc-3oc3cc(O)ccc23)c(C(=O)O)c1 (stereo not drawn) [Compound 5-FAM-MIN, 1-(3-(3-carboxy-4-(6-hydroxy-3-oxo-3H-xanthen-9-yl)benzamido)-2-hydroxypropyl)-3-(2-hydroxy-2,2-diphosphonoethyl)imidazo[1,2-a]pyridin-1-ium] | 493 nm | 522 nm | – | – | 73,000 (pH 7.2) M^−1cm^−1 | – | – | – |
| 2-(5-(3-(6-((2-hydroxy-3-(1-(2-hydroxy-2,2-diphosphonoethyl)-1H-imidazol-3-ium-3-yl)propyl)amino)-6-oxohexyl)-3-methyl-5-sulfo-1-(3-sulfopropyl)indolin-2-ylidene)penta-1,3-dien-1-yl)-3,3-dimethyl-5-sulfo-1-(3-sulfopropyl)-3H-indol-1-ium [AF647-ZOL] | 648.5 nm | 666 nm | – | – | – | – | 240,000 (pH 7.0) M^−1cm^−1 | – |
| O=C(NCC(O)C[n+]1cc(CC(O)(P(=O)(O)O)P(=O)(O)O)n2ccccc21)c1ccc(C(=O)O)c(-c2c3ccc(=O)cc-3oc3cc(O)ccc23)c1 (stereo not drawn) [Compound 6-FAM-MIN, 1-(3-(4-carboxy-3-(6-hydroxy-3-oxo-3H-xanthen-9-yl)benzamido)-2-hydroxypropyl)-3-(2-hydroxy-2,2-diphosphonoethyl)imidazo[1,2-a]pyridin-1-ium] | 493 nm | 518 nm | – | – | 73,000 (pH 7.2) M^−1cm^−1 | – | – | – |
| CCN(CC)c1ccc2c(-c3ccc(S(=O)(=O)NCCCCCC(=O)NCC(O)C[n+]4cccc(CC(O)(C(=O)O)P(=O)(O)O)c4)cc3S(=O)(=O)O)c3ccc(=[N+](CC)CC)cc-3oc2c1 (stereo not drawn) [5(6)-RhR-RISPC, 3-(2-carboxy-2-hydroxy-2-phosphonoethyl)-1-{3-[6-({4-[6-(diethylamino)-3-(diethylimino)-3H-xanthen-9-yl]-3-sulfobenzene}sulfonamido)hexanamido]-2-hydroxypropyl}pyridinium] | 568 nm | 589 nm | – | – | – | 114,850 (pH 7.5) M^−1cm^−1 | – | – |
| CCN(CC)c1ccc2c(-c3ccc(S(=O)(=O)NCCCCCC(=O)NCC(O)C[n+]4cccc(CC(P(=O)(O)O)P(=O)(O)O)c4)cc3S(=O)(=O)O)c3ccc(=[N+](CC)CC)cc-3oc2c1 (stereo not drawn) [5(6)-RhR-dRIS, 1-{3-[6-({4-[6-(diethylamino)-3-(diethylimino)-3H-xanthen-9-yl]-3-sulfobenzene}sulfonamido)hexanamido]-2-hydroxypropyl}-3-(2,2-diphosphonoethyl)pyridin-1-ium] | 567.5 nm | 589 nm | – | – | – | 114,850 (pH 7.5) M^−1cm^−1 | – | – |
| O=C(NCC(O)C[n+]1cc(CC(O)(C(=O)O)P(=O)(O)O)n2ccccc21)c1ccc(C(=O)O)c(-c2c3ccc(=O)cc-3oc3cc(O)ccc23)c1 (stereo not drawn) [Compound 6-FAM-MINPC, 3-(2-carboxy-2-hydroxy-2-phosphonoethyl)-1-(3-(4-carboxy-3-(6-hydroxy-3-oxo-3H-xanthen-9-yl)benzamido)-2-hydroxypropyl)imidazo[1,2-a]pyridin-1-ium] | 493 nm | 517 nm | – | – | 73,000 (pH 7.2) M^−1cm^−1 | – | – | – |
| CC1(C)C(C=CC=CC=C2N(CCCS(=O)(=O)O)c3ccc(S(=O)(=O)O)cc3C2(C)CCCCCC(=O)NCC(O)C[n+]2cccc(CC(O)(C(=O)O)P(=O)(O)O)c2)=[N+](CCCS(=O)(=O)O)c2ccc(S(=O)(=O)O)cc21 (stereo not drawn) [AF647-RISPC, 2-(5-(3-(6-((3-(3-(2-carboxy-2-hydroxy-2-phosphonoethyl)pyridin-1-ium-1-yl)-2-hydroxypropyl)amino)-6-oxohexyl)-3-methyl-5-sulfo-1-(3-sulfopropyl)indolin-2-ylidene)penta-1,3-dien-1-yl)-3,3-dimethyl-5-sulfo-1-(3-sulfopropyl)-3H-indol-1-ium] | 648 nm | 666 nm | – | – | – | – | 240,000 (pH 7.0) M^−1cm^−1 | – |
| CN1/C(=C/C=C/C=C/C2=[N+](CCCCCC(=O)NCC(O)C[n+]3ccn(CC(O)(P(=O)(O)O)P(=O)(O)O)c3)c3ccc(S(=O)(=O)[O-])cc3C2(C)C)C(C)(C)c2cc(S(=O)(=O)[O-])ccc21 (stereo not drawn) [Sulfo-Cy5-ZOL, 1-(6-((2-hydroxy-3-(1-(2-hydroxy-2,2-diphosphonoethyl)-1H-imidazol-3-ium-3-yl)propyl)amino)-6-oxohexyl)-3,3-dimethyl-2-((1E,3E,5E)-5-(1,3,3-trimethyl-5-sulfonatoindolin-2-ylidene)penta-1,3-dien-1-yl)-3H-indol-1-ium-5-sulfonate] | 644 nm | 663 nm | – | – | – | – | – | 271,000 (1x PBS, pH 7.4) M^−1cm^−1 |
